# Source: patent US20250009742A1 (priority 2021, published 2025)
# pIC50: −log10 of the molar value.
# Tested on: intracellular HBV DNA
# Assay: Real-time PCR for intracellular HBV DNA in HepAD38 cells
# Type: cell-based
# Settings: Hepatitis B virus, HePAD38, 65 h, 65 hours treatment
# Method: HepAD38 cells were cultured in DMEM medium (Welgene) supplemented with 200 unit/mL penicillin, 200 μg/mL streptomycin, and 10% FBS. During maintenance and passage, the cells were cultured together with 0.4 μg/mL tetracycline. Two days before the treatment with compounds for inducing HBV replication was started, the medium was replaced with a tetracycline-free complete growth medium. […]
# HepAD38 cells were treated with a compound for 65 hours and then recovered, and intracellular HBV DNA was extracted therefrom according to the protocol in the DNeasy Blood & Tissue Kit (Qiagen). The primers and probes used to quantify HBV DNA were 5′-[…]-3′, 5′-[…]-3′, and 5′-/56-FAM/TGT CCT GGT/ZEN/TAT CGC TGG ATG TGT CT/3IABkFQ/-3′. The HBV DNA was amplified by real-time PCR assay using LightCycler 480 (Roche) (J. Virol., 2018, 92(16):e00339-18). All of the processes were confirmed in duplicate.
row,SMILES,pIC50
1,"COc1ncc(N(Cc2cc(C(F)(F)F)[nH]n2)C(=O)Nc2cnc(F)c(Cl)c2)cn1 [Example 107, 3-(5-chloro-6-fluoropyridin-3-yl)-1-(2-methoxypyrimidin-5-yl)-1-((5-(trifluoromethyl)-1H-pyrazol-3-yl)methyl)urea]",7.21
2,"O=C(Nc1ccc(F)c(Cl)c1)N(Cc1cc(C(F)(F)F)[nH]n1)C12CC(C1)C2 [Example 137, 1-(bicyclo[1.1.1]pentan-1-yl)-3-(3-chloro-4-fluorophenyl)-1-((5-(trifluoromethyl)-1H-pyrazol-3-yl)methyl)urea]",6.43
3,"COc1ncc(N(Cc2cc(C(F)(F)F)[nH]n2)C(=O)Nc2nc(Cl)cc(C)c2F)cn1 [Example 141, 3-(6-chloro-3-fluoro-4-methylpyridin-2-yl)-1-(2-methoxypyrimidin-5-yl)-1-((5-(trifluoromethyl)-1H-pyrazol-3-yl)methyl)urea]",6.38
4,"CCOCCc1c(CN(C(=O)Nc2ccc(F)c(Cl)c2)c2ccc(OC)nc2)n[nH]c1C(F)(F)F [Example 85, 3-(3-chloro-4-fluorophenyl)-1-((4-(2-ethoxyethyl)-5-(trifluoromethyl)-1H-pyrazol-3-yl)methyl)-1-(6-methoxypyridin-3-yl)urea]",6.64
5,"N#Cc1ccc(N(Cc2cc(C(F)F)[nH]n2)C(=O)Nc2ccc(F)c(Cl)c2)cn1 [Example 126, 3-(3-chloro-4-fluorophenyl)-1-(6-cyanopyridin-3-yl)-1-((5-(difluoromethyl)-1H-pyrazol-3-yl)methyl)urea]",6.27
6,"COc1ncc(N(Cc2cc(C(F)F)[nH]n2)C(=O)Nc2ccc(Cl)nc2Cl)cn1 [Example 166, 3-(2,6-dichloropyridin-3-yl)-1-((5-(difluoromethyl)-1H-pyrazol-3-yl)methyl)-1-(2-methoxypyrimidin-5-yl)urea]",< 5.96
7,"COc1ncc(N(Cc2cc(C(F)(F)F)[nH]n2)C(=O)Nc2cncnc2)cn1 [Example 2, 1-(2-methoxypyrimidin-5-yl)-3-(pyrimidin-5-yl)-1-((5-(trifluoromethyl)-1H-pyrazol-3-yl)methyl)urea]",< 5.96
8,"COc1ncc(N(Cc2cc(C(F)(F)F)[nH]n2)C(=O)Nc2nc(F)c(F)cc2F)cn1 [Example 221, 1-(2-methoxypyrimidin-5-yl)-1-((5-(trifluoromethyl)-1H-pyrazol-3-yl)methyl)-3-(3,5,6-trifluoropyridin-2-yl)urea]",< 5.96
9,"COc1ncc(N(Cc2cc(C(F)(F)F)[nH]n2)C(=O)Nc2ccc(Cl)nc2Cl)cn1 [Example 165, 3-(2,6-dichloropyridin-3-yl)-1-(2-methoxypyrimidin-5-yl)-1-((5-(trifluoromethyl)-1H-pyrazol-3-yl)methyl)urea]",< 5.96
10,"COc1ncc(N(Cc2n[nH]c(C(F)(F)F)c2CC(C)(C)O)C(=O)Nc2ccc(F)c(Cl)c2)cn1 [Example 101, 3-(3-chloro-4-fluorophenyl)-1-((4-(2-hydroxy-2-methylpropyl)-5-(trifluoromethyl)-1H-pyrazol-3-yl)methyl)-1-(2-methoxypyrimidin-5-yl)urea]",< 5.96
11,"COc1ncc(N(Cc2cc(C#N)[nH]n2)C(=O)Nc2ccc(F)c(C(F)F)c2)cn1 [Example 209, 1-((5-cyano-1H-pyrazol-3-yl)methyl)-3-(3-(difluoromethyl)-4-fluorophenyl)-1-(2-methoxypyrimidin-5-yl)urea]",7.80
12,"COc1ncc(N(Cc2cc(C(F)(F)F)[nH]n2)C(=O)Nc2cc(F)c(F)c(C#N)c2)cn1 [Example 149, 3-(3-cyano-4,5-difluorophenyl)-1-(2-methoxypyrimidin-5-yl)-1-((5-(trifluoromethyl)-1H-pyrazol-3-yl)methyl)urea]",6.22
13,"COc1ncc(N(Cc2cc(C(F)(F)F)[nH]n2)C(=O)NC23CC(C)(C2)C3)cn1 [Example 217, 1-(2-methoxypyrimidin-5-yl)-3-(3-methylbicyclo[1.1.1]pentan-1-yl)-1-((5-(trifluoromethyl)-1H-pyrazol-3-yl)methyl)urea]",< 5.96
14,"COc1ncc(N(Cc2cc(C(F)(F)F)[nH]n2)C(=O)Nc2ccnc(C(F)F)c2)cn1 [Example 175, 3-(2-(difluoromethyl)pyridin-4-yl)-1-(2-methoxypyrimidin-5-yl)-1-((5-(trifluoromethyl)-1H-pyrazol-3-yl)methyl)urea]",7.39
15,"COc1ncc(N(Cc2cc(C(F)(F)F)[nH]n2)C(=O)Nc2cnc(F)c(F)c2)cn1 [Example 171, 3-(5,6-difluoropyridin-3-yl)-1-(2-methoxypyrimidin-5-yl)-1-((5-(trifluoromethyl)-1H-pyrazol-3-yl)methyl)urea]",6.55
16,"COc1ncc(N(Cc2cc(C(F)(F)F)[nH]n2)C(=O)Nc2cnc(Cl)nc2)cn1 [Example 143, 3-(2-chloropyrimidin-5-yl)-1-(2-methoxypyrimidin-5-yl)-1-((5-(trifluoromethyl)-1H-pyrazol-3-yl)methyl)urea]",< 5.96
17,"COc1ncc(N(Cc2cc(C(F)F)[nH]n2)C(=O)Nc2cc(F)c(F)c(C#N)c2)cn1 [Example 150, 3-(3-cyano-4,5-difluorophenyl)-1-((5-(difluoromethyl)-1H-pyrazol-3-yl)methyl)-1-(2-methoxypyrimidin-5-yl)urea]",< 5.96
18,"COc1ncc(N(Cc2cc(C(F)F)[nH]n2)C(=O)Nc2cc(C)c(F)c(Cl)c2)cn1 [Example 139, 3-(3-chloro-4-fluoro-5-methylphenyl)-1-((5-(difluoromethyl)-1H-pyrazol-3-yl)methyl)-1-(2-methoxypyrimidin-5-yl)urea]",7.40
19,"COc1ncc(N(Cc2cc(C(F)(F)F)[nH]n2)C(=O)Nc2ccc(F)c(C#N)n2)cn1 [Example 160, 3-(6-cyano-5-fluoropyridin-2-yl)-1-(2-methoxypyrimidin-5-yl)-1-((5-(trifluoromethyl)-1H-pyrazol-3-yl)methyl)urea]",6.37
20,"COc1ncc(N(Cc2cc(C(F)(F)F)[nH]n2)C(=O)Nc2ccc(F)c(F)n2)cn1 [Example 170, 3-(5,6-difluoropyridin-2-yl)-1-(2-methoxypyrimidin-5-yl)-1-((5-(trifluoromethyl)-1H-pyrazol-3-yl)methyl)urea]",6.52
21,"COC12CC(N(Cc3cc(C(F)(F)F)[nH]n3)C(=O)Nc3ccc(F)c(C#N)c3)(C1)C2 [Example 162, 3-(3-cyano-4-fluorophenyl)-1-(3-methoxybicyclo[1.1.1]pentan-1-yl)-1-((5-(trifluoromethyl)-1H-pyrazol-3-yl)methyl)urea]",7.44
22,"COc1ccc(N(Cc2cc(C(F)F)[nH]n2)C(=O)Nc2ccc(F)c(C(F)F)c2)cn1 [Example 191, 1-((5-(difluoromethyl)-1H-pyrazol-3-yl)methyl)-3-(3-(difluoromethyl)-4-fluorophenyl)-1-(6-methoxypyridin-3-yl)urea]",7.62
23,"COc1ncc(N(Cc2cc(C#N)[nH]n2)C(=O)Nc2ccc(F)c(Cl)c2)cn1 [Example 104, 3-(3-chloro-4-fluorophenyl)-1-((5-cyano-1H-pyrazol-3-yl)methyl)-1-(2-methoxypyrimidin-5-yl)urea]",7.57
24,"COc1ncc(N(Cc2cc(C(F)(F)F)[nH]n2)C(=O)Nc2ccnc(C(F)F)c2F)cn1 [Example 211, 3-(2-(difluoromethyl)-3-fluoropyridin-4-yl)-1-(2-methoxypyrimidin-5-yl)-1-((5-(trifluoromethyl)-1H-pyrazol-3-yl)methyl)urea]",7.51
